Reference: paper PMC7933434, “Entropy-driven binding of gut bacterial β-glucuronidase inhibitors ameliorates irinotecan-induced toxicity” (Communications Biology, 2021)
Values joined by “and” are separate entries in the source; they are usually repeats but may differ in a detail not shown here. Equal entries are not always repeated.

Molecular target: T1, HsGUS (human GUS) (Homo sapiens, UniProt P08236)
T1 construct: HsGUS was prepared as described[37]; made in house
T1 sequence (P08236 23-651): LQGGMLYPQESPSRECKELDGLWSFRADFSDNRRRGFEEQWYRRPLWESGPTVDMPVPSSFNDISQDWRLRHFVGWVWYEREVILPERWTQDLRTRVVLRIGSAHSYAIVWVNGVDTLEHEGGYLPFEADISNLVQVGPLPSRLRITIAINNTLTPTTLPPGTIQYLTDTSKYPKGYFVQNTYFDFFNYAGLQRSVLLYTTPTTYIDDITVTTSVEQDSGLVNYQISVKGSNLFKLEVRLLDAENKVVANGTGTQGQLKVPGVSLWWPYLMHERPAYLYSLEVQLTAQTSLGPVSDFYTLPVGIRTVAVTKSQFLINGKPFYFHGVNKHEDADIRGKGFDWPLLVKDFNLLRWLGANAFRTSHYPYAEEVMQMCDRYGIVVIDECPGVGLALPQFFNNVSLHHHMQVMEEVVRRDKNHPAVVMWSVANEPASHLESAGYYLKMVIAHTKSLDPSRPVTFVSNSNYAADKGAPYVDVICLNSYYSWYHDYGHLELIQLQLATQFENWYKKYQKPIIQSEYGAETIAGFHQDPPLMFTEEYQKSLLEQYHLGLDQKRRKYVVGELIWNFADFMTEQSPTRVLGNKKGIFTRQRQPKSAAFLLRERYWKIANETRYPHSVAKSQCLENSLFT
Experiment: GUS inhibition assay, hydrolysis of 4-methylumbelliferyl-β-glucuronide, HsGUS
Type: biochemical
Design: GUS activity (hydrolysis rate of MUG): unit not given here

CCCCCCCCC[C@@H]1NC[C@@H](O)[C@H](O)[C@H]1C(=O)O [Inhibitor 4, C6-nonyl UIFG]
Ki (HsGUS, 50 mM sodium acetate pH 4.5, 37 °C): 105 µM
GUS activity (hydrolysis rate of MUG) ([Inhibitor 4] =32 μM, [MUG] 0.1 mM): 862.058 and 811.68
GUS activity (hydrolysis rate of MUG) ([Inhibitor 4] =32 μM, [MUG] 0.2 mM): 1454.23 and 1423.51
GUS activity (hydrolysis rate of MUG) ([Inhibitor 4] =32 μM, [MUG] 0.4 mM): 2392.78 and 2276.09
GUS activity (hydrolysis rate of MUG) ([Inhibitor 4] =32 μM, [MUG] 0.6 mM): 3009.56 and 2960.24
GUS activity (hydrolysis rate of MUG) ([Inhibitor 4] =32 μM, [MUG] 0.8 mM): 3491.23 and 3336.67
GUS activity (hydrolysis rate of MUG) ([Inhibitor 4] =32 μM, [MUG] 1.2 mM): 3870.44 and 4183.78
GUS activity (hydrolysis rate of MUG) ([Inhibitor 4] =32 μM, [MUG] 1.6 mM): 4158.21 and 4615.97
GUS activity (hydrolysis rate of MUG) ([Inhibitor 4] =32 μM, [MUG] 2 mM): 4779.14 and 4997.44
GUS activity (hydrolysis rate of MUG) ([Inhibitor 4] =67 μM, [MUG] 0.1 mM): 714.053 and 717.679
GUS activity (hydrolysis rate of MUG) ([Inhibitor 4] =67 μM, [MUG] 0.2 mM): 1251.96 and 1238.2
GUS activity (hydrolysis rate of MUG) ([Inhibitor 4] =67 μM, [MUG] 0.4 mM): 2074.49 and 2003.18
GUS activity (hydrolysis rate of MUG) ([Inhibitor 4] =67 μM, [MUG] 0.6 mM): 2680.12 and 2744.95
GUS activity (hydrolysis rate of MUG) ([Inhibitor 4] =67 μM, [MUG] 0.8 mM): 3069.97 and 3096.82
GUS activity (hydrolysis rate of MUG) ([Inhibitor 4] =67 μM, [MUG] 1.2 mM): 3696.42 and 3579.45
GUS activity (hydrolysis rate of MUG) ([Inhibitor 4] =67 μM, [MUG] 1.6 mM): 4205.98 and 4285.65
GUS activity (hydrolysis rate of MUG) ([Inhibitor 4] =67 μM, [MUG] 2 mM): 4703.3 and 4573.62
GUS activity (hydrolysis rate of MUG) ([Inhibitor 4] =132 μM, [MUG] 0.1 mM): 517.307 and 519.469
GUS activity (hydrolysis rate of MUG) ([Inhibitor 4] =132 μM, [MUG] 0.2 mM): 900.965 and 901.806
GUS activity (hydrolysis rate of MUG) ([Inhibitor 4] =132 μM, [MUG] 0.4 mM): 1492.38 and 1537.56
GUS activity (hydrolysis rate of MUG) ([Inhibitor 4] =132 μM, [MUG] 0.6 mM): 1976.12 and 2037.84
GUS activity (hydrolysis rate of MUG) ([Inhibitor 4] =132 μM, [MUG] 0.8 mM): 2410.12 and 2475.98
GUS activity (hydrolysis rate of MUG) ([Inhibitor 4] =132 μM, [MUG] 1.2 mM): 2927.86 and 2924.04
GUS activity (hydrolysis rate of MUG) ([Inhibitor 4] =132 μM, [MUG] 1.6 mM): 3406.61 and 3409.83
GUS activity (hydrolysis rate of MUG) ([Inhibitor 4] =132 μM, [MUG] 2 mM): 3959.47 and 3855.66
GUS activity (hydrolysis rate of MUG) ([Inhibitor 4] =180 μM, [MUG] 0.1 mM): 375.667 and 389.113
GUS activity (hydrolysis rate of MUG) ([Inhibitor 4] =180 μM, [MUG] 0.2 mM): 647.66 and 642.675
GUS activity (hydrolysis rate of MUG) ([Inhibitor 4] =180 μM, [MUG] 0.4 mM): 1075.66 and 1190.92
GUS activity (hydrolysis rate of MUG) ([Inhibitor 4] =180 μM, [MUG] 0.6 mM): 1564.63 and 1648.7
GUS activity (hydrolysis rate of MUG) ([Inhibitor 4] =180 μM, [MUG] 0.8 mM): 1885.35 and 1934.39
GUS activity (hydrolysis rate of MUG) ([Inhibitor 4] =180 μM, [MUG] 1.2 mM): 2412.5 and 2422.72
GUS activity (hydrolysis rate of MUG) ([Inhibitor 4] =180 μM, [MUG] 1.6 mM): 2821.07 and 2863.56
GUS activity (hydrolysis rate of MUG) ([Inhibitor 4] =180 μM, [MUG] 2 mM): 3316.38 and 3309.46
GUS activity (hydrolysis rate of MUG) ([Inhibitor 4] =262 μM, [MUG] 0.1 mM): 312.332 and 326.592
GUS activity (hydrolysis rate of MUG) ([Inhibitor 4] =262 μM, [MUG] 0.2 mM): 574.208 and 582.829
GUS activity (hydrolysis rate of MUG) ([Inhibitor 4] =262 μM, [MUG] 0.4 mM): 1016.99 and 1025.39
GUS activity (hydrolysis rate of MUG) ([Inhibitor 4] =262 μM, [MUG] 0.6 mM): 1397.45 and 1434.43
GUS activity (hydrolysis rate of MUG) ([Inhibitor 4] =262 μM, [MUG] 0.8 mM): 1699 and 1721.63
GUS activity (hydrolysis rate of MUG) ([Inhibitor 4] =262 μM, [MUG] 1.2 mM): 2236.3 and 2225.05
GUS activity (hydrolysis rate of MUG) ([Inhibitor 4] =262 μM, [MUG] 1.6 mM): 2654.14 and 2619.41
GUS activity (hydrolysis rate of MUG) ([Inhibitor 4] =262 μM, [MUG] 2 mM): 3001.13 and 3042.83
